Results taken from US8461328B2, “Tricyclic heterocyclic compounds, compositions and methods of use thereof” (Genentech, Inc., priority 2010, dated 2013).

Legend:
Assay type in all cases: biochemical
[1] = target: T1, JAK3 (Homo sapiens, UniProt P52333); test: JAK3 inhibition (Table 4); settings: read-out: JAK3 Ki
T1 construct: made in house; host or cells: SF9 insect cells (baculovirus)

[2] = target: T2, TYK2 (Homo sapiens, UniProt P29597); test: TYK2 inhibition (Table 4)
T2 construct: made in house; host or cells: SF9 insect cells (baculovirus)
T2 sequence (P29597 873-1187): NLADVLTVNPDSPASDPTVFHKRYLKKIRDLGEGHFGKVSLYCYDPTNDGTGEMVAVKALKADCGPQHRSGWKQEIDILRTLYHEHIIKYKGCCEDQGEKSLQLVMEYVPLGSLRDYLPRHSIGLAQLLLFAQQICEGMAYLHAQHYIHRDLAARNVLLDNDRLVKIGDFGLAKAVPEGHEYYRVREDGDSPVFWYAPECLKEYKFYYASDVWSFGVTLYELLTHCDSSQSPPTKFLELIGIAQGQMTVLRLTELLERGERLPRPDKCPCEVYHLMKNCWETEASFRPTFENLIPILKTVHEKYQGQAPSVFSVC

[3] = target: T3, JAK2 (Homo sapiens, UniProt O60674); test: JAK2 inhibition (Table 4); settings: read-out: JAK2 Ki
T3 construct: made in house; host or cells: SF9 insect cells (baculovirus)
T3 sequence (O60674 812-1132): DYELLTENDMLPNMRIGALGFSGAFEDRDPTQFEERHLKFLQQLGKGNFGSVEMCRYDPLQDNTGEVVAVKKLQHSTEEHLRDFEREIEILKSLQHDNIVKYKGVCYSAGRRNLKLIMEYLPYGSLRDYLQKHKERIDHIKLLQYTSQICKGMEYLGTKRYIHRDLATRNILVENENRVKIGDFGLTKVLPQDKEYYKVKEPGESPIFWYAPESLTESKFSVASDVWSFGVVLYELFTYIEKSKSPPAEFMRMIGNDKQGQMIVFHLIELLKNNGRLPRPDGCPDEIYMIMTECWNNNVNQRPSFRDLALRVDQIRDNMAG

[4] = target: T4, JAK1 (Homo sapiens, UniProt P23458); test: JAK1 inhibition (Table 4); settings: read-out: JAK1 Ki
T4 construct: made in house; host or cells: SF9 insect cells (baculovirus)
T4 sequence (P23458 852-1154): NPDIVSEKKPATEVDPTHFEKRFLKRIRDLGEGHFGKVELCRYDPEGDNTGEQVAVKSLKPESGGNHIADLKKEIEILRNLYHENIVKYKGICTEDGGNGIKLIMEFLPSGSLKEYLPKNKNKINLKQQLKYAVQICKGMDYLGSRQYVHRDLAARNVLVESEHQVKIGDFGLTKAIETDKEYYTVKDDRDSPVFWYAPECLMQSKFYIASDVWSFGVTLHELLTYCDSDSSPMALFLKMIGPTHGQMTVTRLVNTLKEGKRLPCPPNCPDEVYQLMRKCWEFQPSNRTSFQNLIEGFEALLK

T1 sequence (P52333 783-1124): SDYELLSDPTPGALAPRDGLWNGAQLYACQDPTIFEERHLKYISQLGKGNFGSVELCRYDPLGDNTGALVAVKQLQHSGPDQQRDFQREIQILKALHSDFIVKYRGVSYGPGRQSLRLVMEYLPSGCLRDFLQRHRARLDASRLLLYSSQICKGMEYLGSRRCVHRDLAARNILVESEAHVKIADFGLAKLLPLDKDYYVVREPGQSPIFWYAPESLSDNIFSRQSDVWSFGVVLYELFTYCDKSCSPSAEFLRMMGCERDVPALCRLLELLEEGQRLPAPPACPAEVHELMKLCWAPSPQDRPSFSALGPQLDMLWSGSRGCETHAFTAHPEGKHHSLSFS

SMILES	Ki [1]	Ki [2]	Ki [3]	Ki [4]
COCCNC1CCC(n2cnc3cnc4[nH]ccc4c32)C1 (racemic) [Example 726, (2-Methoxy-ethyl)-[3-(6H-1,3,5,6-tetraaza-as-indacen-1-yl)-cyclopentyl]-amine]	754 nM	2220 nM	785 nM	176 nM
CCCc1nc2cnc3[nH]ccc3c2n1C1CCN(CCC#N)CC1 [Example 120, 3-[4-(2-Propyl-6H-1,2,3,5,6-tetraaza-as-indacen-1-yl)-piperidin-1-yl]-propionitrile]	11.2 nM	82.1 nM	10.3 nM	5.56 nM
FC1CNCCC1n1nnc2cnc3[nH]ccc3c21 (racemic) [Example 525, 1-(3-Fluoro-piperidin-4-yl)-l,6-dihydro-1,2,3,5,6-pentaaza-as-indacene]	87.6 nM	96.8 nM	33.2 nM	12.3 nM
N#CCCn1ncc2c1CC[C@@H](n1cnc3cnc4[nH]ccc4c31)C2 [Example 992, 3-[(R)-5-(6H-1,3,5,6-Tetraaza-as-indacen-1-yl)-4,5,6,7-tetrahydro-indazol-1-yl]-propionitrile]	253 nM	108 nM	37.3 nM	17.8 nM
CC(=O)N1CCC(c2nc3cnc4[nH]ccc4c3n2C2CCN(C(C)CC#N)CC2)CC1 (racemic) [Example 400, 3-{4-[2-(1-Acetyl-piperidin-4-yl)-6H-1,3,5,6-tetraaza-as-indacen-1-yl]-piperidin-1-yl}-butyronitrile]	283 nM	428 nM	115 nM	62.6 nM
CC(=O)NCCc1nc2cnc3[nH]ccc3c2n1[C@@H]1CCCOC1 [Example 865, (R)—N-{2-[1-(Tetrahydro-pyran-3-yl)-1,6-dihydro-1,3,5,6-tetraaza-as-indacen-2-yl]-ethyl}-acetamide]	717 nM	1270 nM	566 nM	87.8 nM
C#CCCN1CCC(n2c([C@@H](C)O)nc3cnc4[nH]ccc4c32)CC1 [Example 871, (R)-1-[1-(1-But-3-ynyl-piperidin-4-yl)-1,6-dihydro-1,3,5,6-tetraaza-as-indacen-2-yl]-ethanol]	177 nM	1170 nM	290 nM	59.7 nM
Cn1ccnc1CN1CCC[C@@H](n2cnc3cnc4[nH]ccc4c32)C1 [Example 44, 1-[(R)-1-(1-Methyl-1H-imidazol-2-ylmethyl)-piperidin-3-yl]-1,6-dihdyro-1,3,5,6-tetraaza-as-indacene]	241 nM	423 nM	121 nM	105 nM
c1cc2c(ncc3nnn(C4CCOCC4)c32)[nH]1 [Example 467, 1-(Tetrahydro-pyran-4-yl)-1,6-dihydro-1,2,3,5,6-pentaaza-as-indacene]	429 nM	230 nM	77.8 nM	32.3 nM
Cc1nc2cnc3[nH]ccc3c2n1C1CCCCC1C (mixture of isomers) [Example 516, 2-Methyl-1-(2-methyl-cyclohexyl)-1,6-dihydro-1,3,5,6-tetraaza-as-indacene]	5.35 nM	7.58 nM	2.78 nM	2.17 nM
Cc1nc2cnc3[nH]ccc3c2n1C1(C)CCN(Cc2ccnc(C#N)c2)CC1 [Example 758, 4-[4-Methyl-4-(2-methyl-6H-1,3,5,6-tetraaza-as-indacen-1-yl)-piperidin-1-ylmethyl]-pyridine-2-carbonitrile]	598 nM	1010 nM	205 nM	40.8 nM
Cc1nc2cnc3[nH]ccc3c2n1C1CCC(NC(=O)CC#N)C1 (racemic) [Example 728, 2-Cyano-N-[3-(2-methyl-6H-1,3,5,6-tetraaza-as-indacen-1-yl)-cyclopentyl]-acetamide]	2.26 nM	22.4 nM	6.24 nM	1.52 nM
NC1CCCC(n2cnc3cnc4[nH]ccc4c32)C1 (single isomer, unassigned) [Example 365, 3-(6H-1,3,5,6-Tetraaza-as-indacen-1-yl)-cyclohexylamine]	331 nM	186 nM	113 nM	24.1 nM
N#CCCN1CCC(n2c(CC(=O)N3CCCC3)nc3cnc4[nH]ccc4c32)CC1 [Example 270, 3-{4-[2-(2-Oxo-2-pyrrolidin-1-yl-ethyl)-6H-1,3,5,6-tetraaza-as-indacen-1-yl]-piperidin-1-yl}-propionitrile]	15.1 nM	352 nM	121 nM	36.1 nM
NC1CCCC(n2cnc3cnc4[nH]ccc4c32)C1 (single isomer, unassigned) [Example 366, 3-(6H-1,3,5,6-Tetraaza-as-indacen-1-yl)-cyclohexylamine]	381 nM	299 nM	69.8 nM	45.9 nM
c1cc(N2CCC(n3cnc4cnc5[nH]ccc5c43)CC2)ncn1 [Example 65, 1-(1-Pyrimidin-4-yl-piperidin-4-yl)-1,6-dihydro-1,3,5,6-tetraaza-as-indacene]	281 nM	107 nM	34.6 nM	14.9 nM
O=C(CN1CCOCC1)N1CCC(n2cnc3cnc4[nH]ccc4c32)CC1 [Example 77, 2-Morpholin-4-yl-1-[4-(6H-1,3,5,6-tetraaza-as-indacen-1-yl)-piperidin-1-yl]ethanone]	2160 nM	1940 nM	185 nM	64.6 nM
c1cc2c(ncc3ncn(C4CCc5[nH]ncc5C4)c32)[nH]1 (centres unmarked) [Example 198, 1-(4,5,6,7-Tetrahydro-1H-indazol-5-yl)-1,6-dihydro-1,2,3,5,6-tetraaza-as-indacene]	25.7 nM	41.4 nM	10.2 nM	6.38 nM
N#CCCN1CCC(n2c(CF)nc3cnc4[nH]ccc4c32)CC1 [Example 530, 3-[4-(2-Fluoromethyl-6H-1,3,5,6-tetraaza-as-indacen-1-yl)-piperidin-1-yl]-propionitrile]	3 nM	5.61 nM	1.45 nM	0.66 nM
c1cc2c(ncc3ncn([C@@H]4C[C@H]5CC[C@@H](C4)N5)c32)[nH]1 [Example 93, (1S,3S,5R)-1-(8-aza-bicyclo[3.2.1]oct-3-yl)-1,6-dihydro-1,3,5,6-tetraaza-as-indacene]	1000 nM	323 nM	102 nM	29.6 nM
O=C(CC(F)(F)F)NC1CCC(n2cnc3cnc4[nH]ccc4c32)C1 (racemic) [Example 729, 3,3,3-Trifluoro-N-[3-(6H-1,3,5,6-tetraaza-as-indacen-1-yl)-cyclopentyl]-propionamide]	13.5 nM	48.9 nM	9.79 nM	2 nM
CC1CC(n2cnc3cnc4[nH]ccc4c32)CCN1 (racemic) [Example 230, 1-(2-Methyl-piperidin-4-yl)-1,6-dihydro-1,3,5,6-tetraaza-as-indacene]	424 nM	435 nM	123 nM	47.8 nM
CCN1CCC(n2c(CNS(C)(=O)=O)nc3cnc4[nH]ccc4c32)C(F)(F)C1 (centres unmarked) [Example 915, N-[1-(1-Ethyl-3,3-difluoro-piperidin-4-yl)-1,6-dihydro-1,3,5,6-tetraaza-as-indacen-2-ylmethyl]-methanesulfonamide]	22.2 nM	101 nM	28.2 nM	5.49 nM
C[C@H](O)c1nc2cnc3[nH]ccc3c2n1C1CCCOC1 (single isomer, unassigned) [Example 462]	1160 nM	1370 nM	538 nM	90 nM
c1cc2c(ncc3ncn(C4CCCCNC4)c32)[nH]1 (single isomer, unassigned) [Example 110a, 1-Azepan-3-yl-1,6-dihydro-1,2,3,5,6-tetraaza-as-indacene]	194 nM	106 nM	81.8 nM	13.6 nM
CC(C)c1nc2cnc3[nH]ccc3c2n1C1CCNCC1 [Example 168, 2-Isopropyl-1-piperidin-4-yl-1,6-dihydro-1,2,3,5,6-tetraaza-as-indacene]	330 nM	1390 nM	312 nM	25.3 nM
N#Cc1ccc(CC(=O)N2CC[C@@H](n3cnc4cnc5[nH]ccc5c43)C2)cc1 [Example 431, 4-{2-Oxo-2-[(R)-3-(6H-1,3,5,6-tetraaza-as-indacen-1-yl)-pyrrolidin-1-yl]-ethyl}-benzonitrile]	3520 nM	1150 nM	175 nM	37.1 nM
COCC(=O)N1CCC(n2c(Cc3conc3C)nc3cnc4[nH]ccc4c32)CC1 [Example 119, 2-Methoxy-1-{4-[2-(3-methyl-isoxazol-4-ylmethyl)-6H-1,2,3,5,6-tetraaza-as-indacen-1-yl]-piperidin-1-yl}-ethanone]	1160 nM	1030 nM	1310 nM	77.7 nM
CC(C1CCCO1)n1cnc2cnc3[nH]ccc3c21 (single isomer, unassigned) [Example 418, 1-[1-(Tetrahydro-furan-2-yl)-ethyl]-1,6-dihydro-1,3,5,6-tetraaza-as-indacene]	33.5 nM	173 nM	29.9 nM	34.8 nM
